# Data from patent publication US10647713B2 (Nimbus Lakshmi, Inc., priority 2016, dated 2020).
# Target: human TYK2 (JH2domain-pseudokinase) (Homo sapiens (Human), UniProt P29597)
# Test: TYK2 JH2 Domain Binding Assay (KINOMEscan, DiscoveRx)
# Details: 11-point dilution, duplicate
# Procedure, shortened: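 TYK2 JH2 (G556–D888)–NFkB DBD fusion, DNA-tagged, from HEK293 extracts (<0.1 nM) competed against immobilised biotinylated ligand for 1 h at room temperature, 0.9% DMSO. Bead-retained kinase quantified by qPCR; Kd from 11-point 3-fold series (top 30,000 nM, duplicate), Hill fit with slope −1.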
# Chain of human TYK2 (JH2domain-pseudokinase) (P29597 556-888): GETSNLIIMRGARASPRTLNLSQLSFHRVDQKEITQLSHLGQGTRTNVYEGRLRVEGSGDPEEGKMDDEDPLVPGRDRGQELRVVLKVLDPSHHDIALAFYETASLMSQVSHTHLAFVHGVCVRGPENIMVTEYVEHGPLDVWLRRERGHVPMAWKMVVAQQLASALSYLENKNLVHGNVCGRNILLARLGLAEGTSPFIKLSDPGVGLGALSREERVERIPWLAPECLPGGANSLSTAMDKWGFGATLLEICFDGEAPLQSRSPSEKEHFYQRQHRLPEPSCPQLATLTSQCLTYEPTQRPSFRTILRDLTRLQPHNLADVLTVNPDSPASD
row,Kd,SMILES
1,0.1 to 0.5 nM,CN=S(C)(=O)c1cc(-c2nc(COC)c(C)s2)ccc1Nc1cc(NC(=O)C2CC2)nc2[nH]c(C(F)F)nc12 (centres unmarked) [I-634]
2,1 to 10 nM,"COc1cc(-c2nc(C)nn2C)ccc1Nc1cc(NC(=O)C2CC2)nc2[nH]c(C(F)F)nc12 [I-161, N-(2-(difluoromethyl)-7-((4-(1,3-dimethyl-1H-1,2,4-triazol-5-yl)-2-methoxyphenyl)amino)-3H-imidazo[4,5-b]pyridin-5-yl)cyclopropanecarboxamide]"
3,> 10 nM,"Cc1nc2c(Nc3ccc(-c4cnn(C)c4)cc3N(C)S(C)(=O)=O)cc(NC(=O)C3CC3(F)F)nc2[nH]1 (centres unmarked) [I-376, 2,2-difluoro-N-(2-methyl-7-((4-(1-methyl-1H-pyrazol-4-yl)-2-(N-methylmethylsulfonamido)phenyl)amino)-3H-imidazo[4,5-b]pyridin-5-yl)cyclopropane-1-carboxamide]"
4,0.1 to 0.5 nM,CS(=O)(=O)c1cc(F)ccc1Nc1cc(Nc2ccc3c(n2)CCOC3)nc2[nH]c(C(F)F)nc12 [I-643]
5,0.1 to 0.5 nM,"CS(=O)(=O)c1cc([C@@H]2CCCOC2)ccc1Nc1cc(NC(=O)C2CC2)nc2[nH]c(C(F)F)nc12 [I-253, (S)—N-(2-(difluoromethyl)-7-((2-(methylsulfonyl)-4-(tetrahydro-2H-pyran-3-yl)phenyl)amino)-3H-imidazo[4,5-b]pyridin-5-yl)cyclopropanecarboxamide]"
6,1 to 10 nM,"COc1cc(-c2cc(C)n(C)n2)ccc1Nc1cc(NC(=O)C2CC2)nc2[nH]c(C(F)F)nc12 [I-589, N-(2-(difluoromethyl)-7-((4-(1,5-dimethyl-1H-pyrazol-3-yl)-2-methoxyphenyl)amino)-3H-imidazo[4,5-b]pyridin-5-yl)cyclopropanecarboxamide]"
7,1 to 10 nM,"COc1c(Nc2cc(Nc3cncc(C#N)n3)nc3[nH]c(C(F)F)nc23)cccc1-c1ccn(C)n1 [I-27, 6-((2-(difluoromethyl)-7-((2-methoxy-3-(1-methyl-1H-pyrazol-3-yl)phenyl)amino)-3H-imidazo[4,5-b]pyridin-5-yl)amino)pyrazine-2-carbonitrile]"
8,0.5 to 1 nM,"CN(c1cc(Cl)ccc1Nc1cc(Nc2cccc(C#N)n2)nc2[nH]c(C(F)F)nc12)S(C)(=O)=O [I-94, N-(5-chloro-2-((5-((6-cyanopyridin-2-yl)amino)-2-(difluoromethyl)-3H-imidazo[4,5-b]pyridin-7-yl)amino)phenyl)-N-methylmethanesulfonamide]"
9,0.5 to 1 nM,"COc1c(Nc2cc(Nc3cnc(C(C)(C)OC)c(C#N)n3)nc3[nH]c(C)nc23)cccc1-c1nnn(C)n1 [I-204, 6-((7-((2-methoxy-3-(2-methyl-2H-tetrazol-5-yl)phenyl)amino)-2-methyl-3H-imidazo[4,5-b]pyridin-5-yl)amino)-3-(2-methoxypropan-2-yl)pyrazine-2-carbonitrile]"
10,> 10 nM,"COc1c(C#N)cccc1Nc1cc(NC(=O)C2CC2)nc2[nH]c(C(F)F)nc12 [I-29, N-(7-((3-cyano-2-methoxyphenyl)amino)-2-(difluoromethyl)-3H-imidazo[4,5-b]pyridin-5-yl)cyclopropanecarboxamide]"
11,1 to 10 nM,"COc1c(Nc2cc(NC(=O)C3CC3)nc3[nH]c(C)nc23)cccc1-c1c(C)nnn1C [I-157, N-(7-((3-(1,4-dimethyl-1H-1,2,3-triazol-5-yl)-2-methoxyphenyl)amino)-2-methyl-3H-imidazo[4,5-b]pyridin-5-yl)cyclopropanecarboxamide]"
12,0.1 to 0.5 nM,Cc1nn(C)c(C)c1-c1ccc(Nc2cc(Nc3cccc(C#N)n3)nc3[nH]c(C(F)F)nc23)c(S(C)(=O)=O)c1 [I-347]
13,0.1 to 0.5 nM,"CN=S(C)(=O)c1ccccc1Nc1cc(NC(=O)C2CC2)nc2[nH]c(C)nc12 (stereo in doubt) [I-548, (S)—N-(7-((2-(N,S-dimethylsulfonimidoyl)phenyl)amino)-2-methyl-3H-imidazo[4,5-b]pyridin-5-yl)cyclopropanecarboxamide]"
14,< 0.1 nM,"Cc1nc2c(Nc3ccccc3S(C)(=O)=O)cc(Nc3ccc4c(n3)C(F)(F)CC4)nc2[nH]1 [I-618, N5-(7,7-difluoro-6,7-dihydro-5H-cyclopenta[b]pyridin-2-yl)-2-methyl-N7-(2-(methylsulfonyl)phenyl)-3H-imidazo[4,5-b]pyridine-5,7-diamine]"
15,0.5 to 1 nM,"CS(=O)(=O)c1cc(C2CCCCO2)ccc1Nc1cc(Nc2cccc(C(F)(F)F)n2)nc2[nH]c(C(F)F)nc12 (centres unmarked) [I-365, 2-(difluoromethyl)-N7-(2-(methylsulfonyl)-4-(tetrahydro-2H-pyran-2-yl)phenyl)-N5-(6-(trifluoromethyl)pyridin-2-yl)-3H-imidazo[4,5-b]pyridine-5,7-diamine]"
16,0.1 to 0.5 nM,Cc1cc(Nc2cc(Nc3ccc(-c4ccn(C5CC5)n4)cc3S(C)(=O)=O)c3nc(C)[nH]c3n2)nc(C)n1 [I-528]
17,0.1 to 0.5 nM,"Cc1nc2c(Nc3ccc(F)cc3S(C)(=O)=O)cc(Nc3cccc(C#N)n3)nc2[nH]1 [I-553, 6-((7-((4-fluoro-2-(methylsulfonyl)phenyl)amino)-2-methyl-3H-imidazo[4,5-b]pyridin-5-yl)amino)picolinonitrile]"
18,0.1 to 0.5 nM,"Cc1nc2c(Nc3ccc(-c4cnn(C)c4)cc3N(C)S(C)(=O)=O)cc(NC(=O)[C@@H]3C[C@@H]3F)nc2[nH]1 [I-268, (1S,2S)-2-fluoro-N-(2-methyl-7-((4-(1-methyl-1H-pyrazol-4-yl)-2-(N-methylmethylsulfonamido)phenyl)amino)-3H-imidazo[4,5-b]pyridin-5-yl)cyclopropane-1-carboxamide]"
19,1 to 10 nM,CC1(C)CC[C@H](c2ccc(Nc3cc(NC(=O)C4CC4)nc4[nH]c(C(F)F)nc34)c(S(C)(=O)=O)c2)OC1 [I-354]
20,> 10 nM,"COc1c(Nc2cc(Nc3ccc(C(C)(C)OC)c(C#N)n3)nc3[nH]c(C(F)F)nc23)cccc1-c1nnn(C)n1 [I-49, 6-((2-(difluoromethyl)-7-((2-methoxy-3-(2-methyl-2H-tetrazol-5-yl)phenyl)amino)-3H-imidazo[4,5-b]pyridin-5-yl)amino)-3-(2-methoxypropan-2-yl)picolinonitrile]"
21,1 to 10 nM,"COc1c(Nc2cc(NC(=O)C3CC3)nc3[nH]c(C(F)F)nc23)cccc1-c1nnn(C)c1C [I-155, N-(2-(difluoromethyl)-7-((3-(1,5-dimethyl-1H-1,2,3-triazol-4-yl)-2-methoxyphenyl)amino)-3H-imidazo[4,5-b]pyridin-5-yl)cyclopropanecarboxamide]"
22,0.1 to 0.5 nM,"COc1c(Nc2cc(Nc3cccc(C#N)n3)nc3[nH]c(C)nc23)cccc1-c1cnn(C)n1 [I-540, 6-((7-((2-methoxy-3-(2-methyl-2H-1,2,3-triazol-4-yl)phenyl)amino)-2-methyl-3H-imidazo[4,5-b]pyridin-5-yl)amino)picolinonitrile]"
23,0.5 to 1 nM,"Cc1ncc(Nc2cc(Nc3ccc([C@@H]4CCCCO4)cc3S(C)(=O)=O)c3nc(C(F)F)[nH]c3n2)nc1C [I-487, (S)-2-(difluoromethyl)-N5-(5,6-dimethylpyrazin-2-yl)-N7-(2-(methylsulfonyl)-4-(tetrahydro-2H-pyran-2-yl)phenyl)-3H-imidazo[4,5-b]pyridine-5,7-diamine]"
24,0.1 to 0.5 nM,"COc1c(Nc2cc(Nc3cccc(C#N)n3)nc3[nH]c(C(F)F)nc23)cccc1-c1ccn(C)n1 [I-25, 6-((2-(difluoromethyl)-7-((2-methoxy-3-(1-methyl-1H-pyrazol-3-yl)phenyl)amino)-3H-imidazo[4,5-b]pyridin-5-yl)amino)picolinonitrile]"

row,SMILES,Kd
1,"COc1c(Nc2cc(NC(=O)C3CC3)nc3[nH]c(C(F)F)nc23)ccc(-c2cc(C)n(C)n2)c1F [I-576, N-(2-(difluoromethyl)-7-((4-(1,5-dimethyl-1H-pyrazol-3-yl)-3-fluoro-2-methoxyphenyl)amino)-3H-imidazo[4,5-b]pyridin-5-yl)cyclopropanecarboxamide]",> 10 nM
2,"C[S+]([O-])c1ccccc1Nc1cc(NC(=O)C2CC2)nc2[nH]c(C(F)F)nc12 (centres unmarked) [I-333, N-(2-(difluoromethyl)-7-((2-(methylsulfinyl)phenyl)amino)-3H-imidazo[4,5-b]pyridin-5-yl)cyclopropanecarboxamide]",1 to 10 nM
3,"CC1(C)CC[C@H](c2ccc(Nc3cc(NC(=O)C4CC4)nc4[nH]c(C(F)F)nc34)c(S(C)(=O)=O)c2)O1 [I-498, (R)—N-(2-(difluoromethyl)-7-((4-(5,5-dimethyltetrahydrofuran-2-yl)-2-(methylsulfonyl)phenyl)amino)-3H-imidazo[4,5-b]pyridin-5-yl)cyclopropanecarboxamide]",0.1 to 0.5 nM
4,"CS(=O)(=O)c1cc([C@@H]2CCCO2)ccc1Nc1cc(NC(=O)[C@H]2CC2(F)F)nc2[nH]c(C(F)F)nc12 [I-317, (R)—N-(2-(difluoromethyl)-7-((2-(methylsulfonyl)-4-((S)-tetrahydrofuran-2-yl)phenyl)amino)-3-imidazo[4,5-b]pyridin-5-yl)-2,2-difluorocyclopropane-1-carboxamide]",0.1 to 0.5 nM
5,"Cc1ccc(Nc2cc(NC(=O)C3CC3)nc3[nH]c(C(F)F)nc23)c(N(C)S(C)(=O)=O)c1 [I-95, N-(2-(difluoromethyl)-7-((4-methyl-2-(N-methylmethylsulfonamido)phenyl)amino)-3H-imidazo[4,5-b]pyridin-5-yl)cyclopropanecarboxamide]",0.1 to 0.5 nM
6,"COc1cc(-c2nc(C)c(C)s2)ccc1Nc1cc(NC(=O)C2CC2)nc2[nH]c(C)nc12 [I-559, N-(7-((4-(4,5-dimethylthiazol-2-yl)-2-methoxyphenyl)amino)-2-methyl-3H-imidazo[4,5-b]pyridin-5-yl)cyclopropanecarboxamide]",1 to 10 nM
7,"COc1c(Nc2cc(NC(=O)C3CC3)nc3[nH]c(C(F)F)nc23)cccc1-c1nn(C)nc1C [I-53, N-(2-(difluoromethyl)-7-((3-(2,5-dimethyl-2H-1,2,3-triazol-4-yl)-2-methoxyphenyl)amino)-3H-imidazo[4,5-b]pyridin-5-yl)cyclopropanecarboxamide]",> 10 nM
8,"COCCCn1ccc(-c2ccc(Nc3cc(NC(=O)C4CC4)nc4[nH]c(C)nc34)c(S(C)(=O)=O)c2)n1 [I-502, N-(7-((4-(1-(3-methoxypropyl)-1H-pyrazol-3-yl)-2-(methylsulfonyl)phenyl)amino)-2-methyl-3H-imidazo[4,5-b]pyridin-5-yl)cyclopropanecarboxamide]",0.1 to 0.5 nM
